Results published in patent publication US20240092773A1, “DIHYDRO-CYCLOPENTA-ISOQUINOLINE SULFONAMIDES DERIVATIVES” (UCB Biopharma SRL, priority 2019, published 2024).

Molecular target: IgE-Tb binding to soluble IgE receptor FcεR1α (Y131A mutation) (Homo sapiens, UniProt P01854, N146Q/N252Q)
Test: In vitro FRET assay: inhibition of binding of IgE-Tb to receptor FcεR1α-Y131A-AF488
Details: read-out: FRET IC50 range

Sequence of IgE-Tb binding to soluble IgE receptor FcεR1α (Y131A mutation) (P01854 whole entry N146Q/N252Q, looked up): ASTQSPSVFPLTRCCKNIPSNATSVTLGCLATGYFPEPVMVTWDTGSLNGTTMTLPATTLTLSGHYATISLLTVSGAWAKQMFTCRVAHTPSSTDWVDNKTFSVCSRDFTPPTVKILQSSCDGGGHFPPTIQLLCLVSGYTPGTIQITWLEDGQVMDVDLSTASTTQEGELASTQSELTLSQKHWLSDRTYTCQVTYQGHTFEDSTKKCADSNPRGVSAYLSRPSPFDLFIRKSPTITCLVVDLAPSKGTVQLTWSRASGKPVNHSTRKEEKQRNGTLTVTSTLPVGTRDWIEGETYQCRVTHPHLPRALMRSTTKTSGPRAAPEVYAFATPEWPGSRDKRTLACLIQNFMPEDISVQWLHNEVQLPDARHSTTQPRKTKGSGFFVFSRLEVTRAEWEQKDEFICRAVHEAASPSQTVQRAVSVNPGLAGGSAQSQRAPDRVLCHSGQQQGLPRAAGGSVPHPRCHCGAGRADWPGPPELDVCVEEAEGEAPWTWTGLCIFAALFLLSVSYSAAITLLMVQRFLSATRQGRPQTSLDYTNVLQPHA

SMILES | IC50 [µM]
CC(C)(F)CNS(=O)(=O)c1cc2c(c3cnc(C4CC4)cc13)CCC2C(=O)O (centres unmarked) [Example 7, 3-cyclopropyl-5-[(2-fluoro-2-methylpropyl)sulfamoyl]-8,9-dihydro-7H-cyclopenta[h]isoquinoline-7-carboxylic Acid] | 0.1 to 2
CC(C)(F)CNS(=O)(=O)c1cc2c(c3cnc(C4CC4)cc13)CCC2(O)c1cccnc1 (centres unmarked) [Example 10, 3-cyclopropyl-N-(2-fluoro-2-methylpropyl)-7-hydroxy-7-pyridin-3-yl-8,9-dihydrocyclopenta[h]isoquinoline-5-sulfonamide] | 0.1 to 2
CC(C)(F)CNS(=O)(=O)c1cc2c(c3cnc(C4CC4)cc13)CCC2c1cccnc1F (centres unmarked) [Example 11, 3-cyclopropyl-N-(2-fluoro-2-methylpropyl)-7-(2-fluoropyridin-3-yl)-8,9-dihydro-7H-cyclopenta[h]isoquinoline-5-sulfonamide] | 0.1 to 2
CC(C)CNS(=O)(=O)c1cc2c(c3cnc(C4CC4)cc13)C(NCc1cccnc1)CC2 (centres unmarked) [Example 14, 3-cyclopropyl-N-(2-methylpropyl)-9-(pyridin-3-ylmethylamino)-8,9-dihydro-7H-cyclopenta[h]isoquinoline-5-sulfonamide] | 0.1 to 2
CC(C)CNS(=O)(=O)c1cc2c(c3cnc(C4CC4)cc13)C(NS(=O)(=O)c1cccnc1)CC2 (centres unmarked) [Example 15, 3-cyclopropyl-N-(2-methylpropyl)-9-(pyridin-3-ylsulfonylamino)-8,9-dihydro-7H-cyclopenta[h]isoquinoline-5-sulfonamide] | 0.1 to 2
Cn1c(NC2CCc3cc(S(=O)(=O)NCC(C)(C)F)c4cc(C5CC5)ncc4c32)nc2ccccc21 (centres unmarked) [Example 17, 3-cyclopropyl-N-(2-fluoro-2-methylpropyl)-9-[(1-methylbenzimidazol-2-yl)amino]-8,9-dihydro-7H-cyclopenta[h]isoquinoline-5-sulfonamide] | 0.1 to 2
COC(=O)c1ccc(NC2CCc3cc(S(=O)(=O)NCC(C)C)c4cc(C5CC5)ncc4c32)cn1 (centres unmarked) [Example 18, methyl 5-[[3-cyclopropyl-5-(2-methylpropylsulfamoyl)-8,9-dihydro-7H-cyclopenta[h]isoquinolin-9-yl]amino]pyridine-2-carboxylate] | 0.01 to 0.05
CC(C)CNS(=O)(=O)c1cc2c(c3cnc(C4CC4)cc13)C(Nc1ccc(C(=O)O)nc1)CC2 (centres unmarked) [Example 19, 5-[[3-cyclopropyl-5-(2-methylpropylsulfamoyl)-8,9-dihydro-7H-cyclopenta[h]isoquinolin-9-yl]amino]pyridine-2-carboxylic Acid] | 0.1 to 2
CC(C)CNS(=O)(=O)c1cc2c(c3nnc(C4CC4)cc13)CCC2 [Example 22, 3-cyclopropyl-N-(2-methylpropyl)-8,9-dihydro-7H-cyclopenta[h]cinnoline-5-sulfonamide] | 0.05 to 0.1
Cc1cc(NC(=S)NC2CCc3c2cc(S(=O)(=O)NCC(C)(C)F)c2cc(C4CC4)nnc32)n(C)n1 (centres unmarked) [Example 23, 1-[3-cyclopropyl-5-[(2-fluoro-2-methylpropyl)sulfamoyl]-8,9-dihydro-7H-cyclopenta[h]cinnolin-7-yl]-3-(2,5-dimethylpyrazol-3-yl)thiourea] | 0.01 to 0.05
Cc1cc(-n2cnnc2NC2CCc3c2cc(S(=O)(=O)NCC(C)(C)F)c2cc(C4CC4)nnc32)n(C)n1 (centres unmarked) [Example 24, 3-cyclopropyl-7-[[4-(2,5-dimethylpyrazol-3-yl)-1,2,4-triazol-3-yl]amino]-N-(2-fluoro-2-methylpropyl)-8,9-dihydro-7H-cyclopenta[h]cinnoline-5-sulfonamide] | 0.01 to 0.05
CC1CC1C(=O)NC1CCc2cc(S(=O)(=O)NCC(C)(C)F)c3cc(C4CC4)ncc3c21 (centres unmarked) [Example 26, N-[3-cyclopropyl-5-[(2-fluoro-2-methylpropyl)sulfamoyl]-8,9-dihydro-7H-cyclopenta[h]isoquinolin-9-yl]-2-methylcyclopropane-1-carboxamide] | 0.1 to 2
CC(C)CNS(=O)(=O)c1cc2c(c3cnc(C4CC4)c(F)c13)CCC2 [Example 27, 3-cyclopropyl-4-fluoro-N-(2-methylpropyl)-8,9-dihydro-7H-cyclopenta[h]isoquinoline-5-sulfonamide] | 0.1 to 2
CC(C)(F)CNS(=O)(=O)c1cc2c(c3cnc(C4CC4)cc13)C(Nc1cncnc1)CC2 (centres unmarked) [Example 28, 3-cyclopropyl-N-(2-fluoro-2-methylpropyl)-9-(pyrimidin-5-ylamino)-8,9-dihydro-7H-cyclopenta[h]isoquinoline-5-sulfonamide] | 0.05 to 0.1
CC(C)(F)CNS(=O)(=O)c1cc2c(c3cnc(C4CC4)cc13)C(Nc1ccc3c(c1)CC(=O)N3)CC2 (centres unmarked) [Example 29, 3-cyclopropyl-N-(2-fluoro-2-methylpropyl)-9-[(2-oxo-1,3-dihydroindol-5-yl)amino]-8,9-dihydro-7H-cyclopenta[h]isoquinoline-5-sulfonamide] | 0.1 to 2
COc1cncc(NC2CCc3cc(S(=O)(=O)NCC(C)(C)F)c4cc(C5CC5)ncc4c32)c1 (centres unmarked) [Example 30, 3-cyclopropyl-N-(2-fluoro-2-methylpropyl)-9-[(5-methoxypyridin-3-yl)amino]-8,9-dihydro-7H-cyclopenta[h]isoquinoline-5-sulfonamide] | 0.01 to 0.05
CC(C)(F)CNS(=O)(=O)c1cc2c(c3cnc(C4CC4)cc13)CCC2Nc1cccnc1 (centres unmarked) [Example 31, 3-cyclopropyl-N-(2-fluoro-2-methylpropyl)-7-(pyridin-3-ylamino)-8,9-dihydro-7H-cyclopenta[h]isoquinoline-5-sulfonamide] | 0.01 to 0.05
CC(C)(F)CNS(=O)(=O)c1cc2c(c3cnc(C4CC4)cc13)C(Nc1cccnc1)CC2 (centres unmarked) [Example 32, 3-cyclopropyl-N-(2-fluoro-2-methylpropyl)-9-(pyridin-3-ylamino)-8,9-dihydro-7H-cyclopenta[h]isoquinoline-5-sulfonamide] | 0.05 to 0.1
[2H]C([2H])(NS(=O)(=O)c1cc2c(c3cnc(C4CC4)cc13)CCC2NC(=O)OC(C)(C)C)C(C)C (centres unmarked) [Example 33, tert-butyl N-[3-cyclopropyl-5-[(1,1-dideuterio-2-methylpropyl)sulfamoyl]-8,9-dihydro-7H-cyclopenta[h]isoquinolin-7-yl]carbamate] | 0.1 to 2
[2H]C([2H])(NS(=O)(=O)c1cc2c(c3cnc(C4CC4)cc13)CCC2N)C(C)C (centres unmarked) [Example 34, 7-amino-3-cyclopropyl-N-(1,1-dideuterio-2-methylpropyl)-8,9-dihydro-7H-cyclopenta[h]isoquinoline-5-sulfonamide] | 0.1 to 2
[2H]C([2H])(NS(=O)(=O)c1cc2c(c3cnc(C4CC4)cc13)CCC2n1cnnc1NCC1CC1)C(C)C (centres unmarked) [Example 35, 3-cyclopropyl-7-[3-(cyclopropylmethylamino)-1,2,4-triazol-4-yl]-N-(1,1-dideuterio-2-methylpropyl)-8,9-dihydro-7H-cyclopenta[h]isoquinoline-5-sulfonamide] | 0.01 to 0.05
CC(C)(F)CNS(=O)(=O)c1cc2c(c3cnc(C4CC4)cc13)OCC2O (centres unmarked) [Example 36, 7-cyclopropyl-N-(2-fluoro-2-methylpropyl)-3-hydroxy-2,3-dihydrofuro[3,2-h]isoquinoline-5-sulfonamide] | 0.01 to 0.05
CC(C)(F)CNS(=O)(=O)c1cc2c(c3cnc(C4CC4)cc13)CCC2n1nccc1NC(=O)C1CC1 (centres unmarked) [Example 38, N-[2-[3-cyclopropyl-5-[(2-fluoro-2-methylpropyl)sulfamoyl]-8,9-dihydro-7H-cyclopenta[h]isoquinolin-7-yl]pyrazol-3-yl]cyclopropanecarboxamide] | 0.1 to 2
